Results: ChEMBL document CHEMBL1201862, “PubChem BioAssay data set” (2004)
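Five compound concentrations were applied to cells in 96-well plates for 48 hours; endpoints were derived by simple linear interpolation of the resulting dose-response curve. At the GI50, growth is halved.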 Activity calls are given as the source filed them. Rule as the data show it: active = GI50 up to about 1.1 µM and inactive = higher.

Key:
Assay in all cases: NCI-60 cell line screen, 48 h
HCT-116 = test system: HCT-116
CCRF-CEM = test system: CCRF-CEM
SW-620 = test system: SW-620
SK-OV-3 = test system: SK-OV-3
M14 = test system: M14
HT-29 = test system: HT-29
CAKI-1 = test system: CAKI-1
KM12 = test system: KM12
SN12C = test system: SN12C
SF-539 = test system: SF-539
SK-MEL-28 = test system: SK-MEL-28
SR = test system: SR
HL-60 = test system: HL-60
A549 = test system: A549
U-251 = test system: U-251
SF-268 = test system: SF-268
RPMI-8226 = test system: RPMI-8226
IGROV-1 = test system: IGROV-1
SNB-19 = test system: SNB-19
SF-295 = test system: SF-295

Measured: GI50

Cc1cccc(NC(=S)N/N=C2\C(=O)Nc3ccccc32)c1
inactive: HCT-116 44.9 µM | CCRF-CEM 55 µM | SW-620 > 100 µM | SK-OV-3 > 100 µM | M14 60.8 µM | HT-29 > 100 µM | CAKI-1 38.2 µM | KM12 39 µM | SN12C 91.4 µM | SF-539 48.3 µM | SK-MEL-28 16.1 µM | SR 70.3 µM | HL-60 67.8 µM | A549 59.4 µM | U-251 61.8 µM | SF-268 4.98 µM | RPMI-8226 > 100 µM | IGROV-1 49.3 µM | SNB-19 > 100 µM | SF-295 56.9 µM

CCC(C)C(=O)c1c(O)c(C/C=C(\C)CCC=C(C)C)c(O)c2c(C(O)CC)cc(=O)oc12 (stereo not given)
inactive: SW-620 1.98 µM | SK-OV-3 4.41 µM | M14 3.31 µM | HT-29 1.27 µM | CAKI-1 2.23 µM | KM12 2.51 µM | SN12C 1.71 µM | SF-539 1.67 µM | SK-MEL-28 1.68 µM | SR 1.31 µM | HL-60 1.46 µM | A549 2.72 µM | U-251 1.51 µM | SF-268 1.9 µM | IGROV-1 2.68 µM | SNB-19 4.23 µM | SF-295 2.81 µM
active: HCT-116 0.867 µM | CCRF-CEM 0.693 µM | RPMI-8226 1.09 µM

NCCCCNCCCNC(=O)c1nc(-c2nc(CCN)sc2Cl)sc1Cl
inactive: HCT-116 9.48 µM | CCRF-CEM 89.5 µM | SW-620 16.7 µM | SK-OV-3 > 100 µM | M14 70.1 µM | HT-29 > 100 µM | CAKI-1 > 100 µM | KM12 27.5 µM | SN12C > 100 µM | SF-539 48.8 µM | SK-MEL-28 46.5 µM | SR 6.87 µM | HL-60 > 100 µM | A549 44.5 µM | U-251 > 100 µM | SF-268 6.98 µM | RPMI-8226 31.3 µM | IGROV-1 > 100 µM | SNB-19 > 100 µM | SF-295 59.8 µM

CCCCCCOP(=O)(OCCCCCC)C(NC(=O)OCC)(C(F)(F)F)C(F)(F)F
inactive: HCT-116 27.4 µM | CCRF-CEM 42.1 µM | SW-620 33.3 µM | SK-OV-3 29 µM | M14 32 µM | HT-29 51.4 µM | CAKI-1 51.6 µM | KM12 39.1 µM | SN12C 34 µM | SF-539 36.3 µM | SK-MEL-28 41.9 µM | SR 50.8 µM | HL-60 > 100 µM | A549 36.9 µM | U-251 36.8 µM | SF-268 40.6 µM | RPMI-8226 > 100 µM | IGROV-1 34 µM | SNB-19 39.4 µM | SF-295 30.3 µM
